{"source": "patent US20070232575A1", "about": "“Treatment of Pulmonary Artery Hypertension with Dhea, Dheas, Dhea Analogs, or Dhea Derivatives” (priority 2004, published 2007)", "key": {"[1]": {"test_system": "chronic hypoxic-pulmonary artery hypertension (CH-PAH)", "experiment": "Echocardiography: right ventricular (RV) wall thickness in CH rats", "type": "in vivo, rat", "procedure": "The rat model experiments were performed as follows. Adult male Wistar rats (220-240 g) were randomized into five groups. […] Intravascular administration was performed via the catheter inserted in the right jugular vein.\nTo perform this procedure, the rats were first anaesthetized."}, "systemic circulation": {"test_system": "systemic circulation", "experiment": "Systemic circulation and cardiac function (systemic blood pressure, heart rate, cardiac output)", "procedure": "To determine the effect of the chronic hypoxia treatment-induced CH-PAH and to determine the effect of DHEA administration on PAP, the following PAP measurement method was used. Rats were anaesthetized with ketamine 50 mg/kg and xylazine 10 mg/kg by i.p. injection. Mean PAP was measured with 2.5-F catheters inserted into the right jugular vein in closed-chest rats (Bonnet, S., et al. (2002) Cardiovasc. Res. 53, 1019-1028, which is incorporated by reference herein in its entirety). The effect of DHEA on the systemic blood pressure was controlled by another catheter placed into the left carotid artery. Throughout all the experiments, heart rate and oxygen saturation were monitored. Acute hypoxic stress with fraction of inspired O2 of 10% were applied by administration of an air plus nitrogen gas mixture. The fraction of inspired O2 was monitored with an oxygen analyzer (Servomex, Crowborough, Great Britain), and the effects on the PAP were measured over a 10-15 minute period.\nEchocardiography measurements were also performed to determine differences between the treated and control rats. To perform this procedure, the rats were first anaesthetized. After thorax epilation, the animals were placed in the left lateral decubitus position. Resting echocardiography measurements were performed at ambient conditions by using a SONOS 5500 (Philips) echocardiograph and a 12-MHz sector scare transducer. Right and left ventricle wall thickness was measured on M-mode tracings following the recommendations of the American Society of Echocardiology as described by Jones et al. ((2002) Am. J. Physiol. 283, H364-H371). Right cardiac output was evaluated by measuring the electrical R-R delay, the PA diameter, and the velocity time integral (VTI) of PA flux."}, "acute hypoxic challenge": {"test_system": "acute hypoxic challenge", "experiment": "Pressure response of the PA to acute hypoxic challenge", "type": "in vivo, rat", "conditions": "3 weeks of hypoxia under DHEA treatment; response disappeared without DHEA", "protocol": "To determine the effect of the chronic hypoxia treatment-induced CH-PAH and to determine the effect of DHEA administration on PAP, the following PAP measurement method was used. Rats were anaesthetized with ketamine 50 mg/kg and xylazine 10 mg/kg by i.p. injection. […] The effect of DHEA on the systemic blood pressure was controlled by another catheter placed into the left carotid artery. Throughout all the experiments, heart rate and oxygen saturation were monitored. Acute hypoxic stress with fraction of inspired O2 of 10% were applied by administration of an air plus nitrogen gas mixture. The fraction of inspired O2 was monitored with an oxygen analyzer (Servomex, Crowborough, Great Britain), and the effects on the PAP were measured over a 10-15 minute period."}, "IPA wall": {"test_system": "IPA wall", "experiment": "CH-induced intrapulmonary artery (IPA) wall remodeling, media layer thickness", "type": "in vivo, rat", "procedure": "Lung sections were formalin-fixed in preparation for histology studies. PA external diameter (PAED), PA internal diameter (PAID), and percentage vessel wall thickness (PAED−PAID)/PAED×100) were measured in small- and medium-sized PAs (80-150 μm). Each group was comprised of four rats, and 10 measures were made per rat by an investigator blinded to the treatment groups.\n(§1) CH induces remodeling of the intrapulmonary artery (IPA) in the rat model of CH-PAH. To examine the changes in the IPA wall upon CH exposure, the following method was performed. Isometric contractions were measured in rings from IPAs that were mounted in vertical 5-ml organ baths of a computerized isolated organ bath system (IOX, EMKA Technologies, Paris), as described in Bonnet, S., et al. (2001, Am. J. Physiol. 281, L183-L192, which is incorporated by reference herein in its entirety). Baths were filled with Krebs-Henseleit solution (composition in mM: 118.4 NaCl/4.7 KCl/2.5 CaCl2/1.2 MgSO4/1.2 KH2PO4/25 NaHCO3/11.1 D-glucose, pH 7.4). The baths were maintained at 37° C. and bubbled with a 95% O2/5% CO2 gas mixture. The tissues were set at optimal length by equilibration against a passive load of 10 mN for rings obtained from normoxic rats and 20 mN for rings obtained from hypoxic rats (Jones, J. E., et al. (2002) Am. J. Physiol. 283, H364-H371, which is incorporated by reference herein in its entirety). A cumulative concentration-response curve was then constructed. A concentration increment was made once the maximal contractile effect of the preceding concentration had been recorded."}, "BKCa [2]": {"molecular_target": "T1, BKCa (Rattus norvegicus, UniProt Q62976)", "T1 construct": "from tissue; host or cells: intrapulmonary artery rings of adult male Wistar rats", "T1 sequence (Q62976 whole entry)": "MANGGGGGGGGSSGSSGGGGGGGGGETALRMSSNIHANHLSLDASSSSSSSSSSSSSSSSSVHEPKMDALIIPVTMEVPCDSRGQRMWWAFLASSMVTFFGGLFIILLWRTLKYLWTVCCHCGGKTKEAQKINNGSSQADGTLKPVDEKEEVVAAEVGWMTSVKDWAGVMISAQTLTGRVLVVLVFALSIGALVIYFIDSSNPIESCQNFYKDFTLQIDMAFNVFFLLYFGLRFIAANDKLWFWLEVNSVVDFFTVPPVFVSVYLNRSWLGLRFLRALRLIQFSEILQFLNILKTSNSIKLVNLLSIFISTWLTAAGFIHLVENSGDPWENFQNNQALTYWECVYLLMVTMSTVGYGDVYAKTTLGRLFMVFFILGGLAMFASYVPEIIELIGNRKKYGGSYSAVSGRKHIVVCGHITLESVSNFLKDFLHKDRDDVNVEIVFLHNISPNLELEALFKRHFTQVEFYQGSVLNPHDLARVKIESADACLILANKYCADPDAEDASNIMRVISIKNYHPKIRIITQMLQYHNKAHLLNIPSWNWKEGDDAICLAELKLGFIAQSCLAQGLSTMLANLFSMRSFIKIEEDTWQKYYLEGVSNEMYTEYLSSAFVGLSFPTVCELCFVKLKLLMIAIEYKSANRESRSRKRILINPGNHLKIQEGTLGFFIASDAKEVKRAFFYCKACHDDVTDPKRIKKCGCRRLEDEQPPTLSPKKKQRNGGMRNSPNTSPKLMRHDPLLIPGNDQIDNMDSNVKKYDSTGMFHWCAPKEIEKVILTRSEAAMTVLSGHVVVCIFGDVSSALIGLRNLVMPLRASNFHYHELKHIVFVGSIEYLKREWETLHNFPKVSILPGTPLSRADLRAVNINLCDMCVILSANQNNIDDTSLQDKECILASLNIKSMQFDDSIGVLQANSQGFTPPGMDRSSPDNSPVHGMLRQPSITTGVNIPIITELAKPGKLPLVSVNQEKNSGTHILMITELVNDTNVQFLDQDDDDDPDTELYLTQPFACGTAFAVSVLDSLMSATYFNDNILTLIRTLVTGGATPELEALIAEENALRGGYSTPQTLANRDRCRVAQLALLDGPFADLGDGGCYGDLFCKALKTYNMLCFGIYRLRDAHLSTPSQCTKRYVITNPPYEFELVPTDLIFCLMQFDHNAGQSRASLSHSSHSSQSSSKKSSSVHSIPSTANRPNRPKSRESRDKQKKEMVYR", "T1 sequence (P97678 whole entry partner)": "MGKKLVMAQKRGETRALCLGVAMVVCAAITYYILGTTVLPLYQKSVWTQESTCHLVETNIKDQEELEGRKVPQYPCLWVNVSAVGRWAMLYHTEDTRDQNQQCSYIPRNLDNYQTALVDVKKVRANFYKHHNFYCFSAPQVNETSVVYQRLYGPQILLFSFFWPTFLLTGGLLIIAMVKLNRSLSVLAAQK", "experiment": "IbTx-induced contraction of IPA rings from CH-DHEA rats", "type": "in vivo", "conditions": "for increase of tension induced by IbTx: rings from CH-DHEA rats compared with control and CH rats", "procedure": "Statistical analyses for the experiments described herein were performed by using NCSS 5.0 software (NCSS, Kaysville, Utah). Values were expressed as mean±SEM. Contractions were expressed as a percentage of K^+-rich (80 mM) solution-induced contractions. Intergroup differences were assessed by a repeated-measures ANOVA or factorial ANOVA, as appropriate. Post hoc analysis used a Fisher multiple comparison test. For some comparisons, the Pearson product moment correlation coefficient between pairs of variables was used as indicated (ORIGIN 5.0, OriginLab, Northampton, Mass.). Regarding the number of experiments, (n) refers to the number of rings or cells and (N) to the number of animals. Differences were considered significant when P<0.05.\nThe heart and lungs were removed and intrapulmonary arteries (IPAs) (150-300 μm of internal diameter) were then dissected. The adventitial and intimal layers were removed. For contraction experiments, rings (3 mm in length) were prepared.\nas §1, with “The tissues were set at optimal length by equilibration against a passive load of 10 mN for rings obtained from normoxic rats and 20 mN for rings obtained from hypoxic rats (Jones, J. E., et al. (2002) Am. J. Physiol. 283, H364-H371, which is incorporated by reference herein in its entirety). A cumulative concentration-response curve was then constructed.” left out"}, "BKCa [3]": {"molecular_target": "T2, BKCa (Homo sapiens, UniProt Q12791)", "T2 construct": "host or cells: hypoxic human pulmonary cells", "T2 sequence (Q12791 whole entry)": "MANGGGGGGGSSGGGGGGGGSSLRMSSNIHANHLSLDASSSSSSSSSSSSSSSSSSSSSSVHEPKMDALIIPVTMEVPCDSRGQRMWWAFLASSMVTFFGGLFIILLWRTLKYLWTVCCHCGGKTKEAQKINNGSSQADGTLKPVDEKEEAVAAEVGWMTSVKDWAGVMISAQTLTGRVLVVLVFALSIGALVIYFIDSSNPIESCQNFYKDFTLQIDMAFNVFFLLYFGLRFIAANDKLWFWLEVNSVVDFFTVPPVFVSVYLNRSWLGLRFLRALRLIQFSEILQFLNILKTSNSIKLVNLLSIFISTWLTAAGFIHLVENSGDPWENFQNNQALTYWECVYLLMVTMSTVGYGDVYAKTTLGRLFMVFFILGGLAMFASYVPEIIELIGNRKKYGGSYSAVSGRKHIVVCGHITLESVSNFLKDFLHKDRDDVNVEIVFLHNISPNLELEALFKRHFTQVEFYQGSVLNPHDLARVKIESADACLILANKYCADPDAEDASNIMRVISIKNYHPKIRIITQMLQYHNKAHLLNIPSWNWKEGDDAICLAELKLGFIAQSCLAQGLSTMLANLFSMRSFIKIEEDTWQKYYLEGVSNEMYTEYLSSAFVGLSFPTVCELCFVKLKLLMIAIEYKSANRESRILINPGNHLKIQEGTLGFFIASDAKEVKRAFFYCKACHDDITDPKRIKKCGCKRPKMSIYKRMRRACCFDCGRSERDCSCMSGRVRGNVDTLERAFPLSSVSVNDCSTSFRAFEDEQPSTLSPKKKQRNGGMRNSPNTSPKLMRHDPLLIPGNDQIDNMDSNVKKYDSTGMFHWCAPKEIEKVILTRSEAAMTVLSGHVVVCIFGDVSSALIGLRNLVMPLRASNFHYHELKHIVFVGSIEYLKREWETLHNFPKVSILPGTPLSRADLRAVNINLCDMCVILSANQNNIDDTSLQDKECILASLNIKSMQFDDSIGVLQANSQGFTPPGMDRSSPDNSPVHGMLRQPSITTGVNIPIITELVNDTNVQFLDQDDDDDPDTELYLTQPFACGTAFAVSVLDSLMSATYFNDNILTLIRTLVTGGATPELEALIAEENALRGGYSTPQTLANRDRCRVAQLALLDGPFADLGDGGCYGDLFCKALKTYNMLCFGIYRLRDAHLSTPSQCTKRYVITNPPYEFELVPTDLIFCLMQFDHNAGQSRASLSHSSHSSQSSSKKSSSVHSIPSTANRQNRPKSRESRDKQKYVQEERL", "conditions": "hypoxic human pulmonary cells, Peng et al. 1999; cited from earlier work"}, "[4]": {"conditions": "one week oral DHEA treatment in CH rats"}}, "note": "Entries after “also recorded” stand apart in the source; their conditions may differ.", "data": [{"compound": "C[C@]12CC[C@H](O)CC1=CC[C@@H]1[C@@H]2CC[C@]2(C)C(=O)CC[C@@H]12", "note": "[DHEA, dehydroepiandrosterone]", "values": [{"measurement": "RV wall thickness", "setting": "[1]; CH-DHEA rats, oral DHEA during 3 wk hypoxia, untreated CH 2.74±0.5", "result": "1.6±0.03", "unit": "mm"}, {"measurement": "RV wall thickness, CH-DHEA vs control rats", "setting": "[1]; after 1 or 2 wk of hypoxia exposure with oral DHEA", "result": "no difference"}, {"measurement": "effect on RV wall thickness / right ventricle hypertrophy (prevention)", "setting": "[1]; oral DHEA for 3 weeks during chronic hypoxia", "result": "significant preventive effect; also recorded: decreased; also recorded: almost entirely prevent"}, {"measurement": "effect on RV wall thickness", "setting": "[1]; oral DHEA, normoxic rats", "result": "no effect"}, {"measurement": "RV wall thickness", "setting": "[1]; rats 3 weeks in CH, oral DHEA during the last week, no DHEA 2.97±0.4", "result": "1.91±0.2", "unit": "mm"}, {"measurement": "cardiac output", "setting": "systemic circulation; [4]", "result": "did not affect"}, {"measurement": "heart rate", "setting": "systemic circulation; [4]", "result": "did not affect"}, {"measurement": "systemic pressure", "setting": "systemic circulation; [4]", "result": "did not affect"}, {"measurement": "cardiac output", "setting": "systemic circulation; oral DHEA 3 weeks", "result": "No significant changes"}, {"measurement": "heart rate", "setting": "systemic circulation; oral DHEA 3 weeks", "result": "No significant changes"}, {"measurement": "cardiac function", "setting": "systemic circulation; oral DHEA 3 weeks, CH-DHEA rats (FIG. 1 D and E)", "result": "did not affect"}, {"measurement": "systemic blood pressure / systemic circulation", "setting": "systemic circulation; oral DHEA 3 weeks, control, DHEA treated and untreated groups", "result": "No significant changes; also recorded: did not affect"}, {"measurement": "pressure response to an acute hypoxic challenge", "setting": "acute hypoxic challenge", "result": "restored"}, {"measurement": "increase in media layer thickness compared with control rats", "setting": "IPA wall; CH-DHEA rats, 3 weeks, CH untreated 33%", "result": 11, "unit": "%"}, {"measurement": "effect on PA wall remodeling (prevention)", "setting": "IPA wall; oral DHEA 3 weeks during CH", "result": "significant protective effect; also recorded: almost entirely prevent; also recorded: prevented the PA wall remodeling"}, {"measurement": "effect on PA wall remodeling (reversal)", "setting": "IPA wall; oral DHEA during last week of 3 weeks CH", "result": "partially but significantly reversed; also recorded: decreased the PA remodeling"}, {"measurement": "increase of tension induced by IbTx", "setting": "BKCa [2]; 100 nM IbTx", "result": 52, "unit": "%"}, {"measurement": "increase of tension induced by IbTx", "setting": "BKCa [2]; 300 nM IbTx", "result": 55, "unit": "%"}, {"measurement": "sensitivity/reactivity of IPA rings to IbTx", "setting": "BKCa [2]; rings from CH-DHEA rats vs CH rats", "result": "increase the sensitivity for IbTx; also recorded: increase in the IbTx response; also recorded: higher reactivity to IbTx"}, {"measurement": "action on BKCa", "setting": "BKCa [3]", "result": "BKCa opener"}]}]}
